Experimental data published in patent US11890279B2, “Quinolines that modulate SERCA and their use for treating disease” (Neurodon Corporation, priority 2020, dated 2024).

How the values were obtained:
ob/ob mice = test: Glucose (GTT) and insulin (ITT) tolerance tests in ob/ob mice; type: in vivo, mouse; settings: vs vehicle
Protocol: For the GTT, D-glucose dissolved in 0.9% NaCl was delivered intraperitoneally at a dose of 1 g/kg. The blood glucose level was measured 0, 15, 30, 60, 90, and 120 min after glucose administration. For the ITT, insulin was administered intraperitoneally at a dose of 1 IU/kg. The blood glucose level was measured 0, 15, 30, 60, 90, and 120 min after insulin administration. Glucose levels were measured in blood samples drawn from the tail vein using OneTouch Ultra 2 Meter (LifeScan, Inc.).

[1] = tested on: CA1 pyramidal neurons of PS1/APP mice; test: Ca2+ imaging in brain slices of treated PS1/APP mice; type: in vivo, mouse; settings: 10 mg/kg IP, 4 weeks, caffeine 10 mM, 60 sec
Excerpt: Mouse Model: PS1/APP mice (PS1M146V and APPSWE) (Howlett et al., Brain Res. 2004, 1017, 130-136) were used. Age-matched NTg controls were on the same background strain (C57bl6/J9).
Brain Slice Preparation: Mice were deeply anesthetized with halothane and rapidly decapitated. The brains were extracted rapidly and 300 or 400 μm-thick transverse hippocampal slices were cut with a vibrating microtome into ice-cold oxygenated artificial cerebrospinal fluid (aCSF) with the following composition (in mM): 125 NaCl, 2.5 KCl, 1.25 KH2PO4, 1.2 MgSO4, 2 CaCl2, 10 dextrose, and 25 NaHCO3.
Ca^2+ Imaging: Ca^2+ imaging within individual neurons was performed in brain slice preparations using a custom-made video-rate multiphoton-imaging system based on an upright Olympus BX51 microscope frame. […] Emitted fluorescence light was detected by a wide-field photomultiplier (Electron Tubes) to derive a video signal that was captured and analyzed by Video Savant 5.0 software (IO Industries). […] For clarity, results are expressed as inverse ratios so that increases in [Ca^2+] correspond to increasing ratios. The % change is calculated as [(F/ΔF)−1]×100, where F is the average resting fluorescence at baseline and ΔF is the decrease of fluorescence reflecting Ca release. Differences between drug- and saline-treated groups were assessed using two-way ANOVA and Scheffe post hoc analysis for significance (p<0.05). […]

Cc1ccc2cccc(NC(=O)c3ccc(OC(C)C)cc3)c2n1 [Compound A12, 4-Isopropoxy-N-(2-methylquinolin-8-yl)benzamide]
hyperglycemic response to i.p. glucose challenge (GTT) (ob/ob mice; day 7 post-injection): significantly reduced | insulin-stimulated glucose deposal (ITT) (ob/ob mice; day 10 post-injection): strongly enhanced | ER Ca^2+ signaling (RyR-Ca2+ response to caffeine) [1]: restores ER Ca^2+ signaling
